Data from patent US5993860A, “NSADI delivery employing a powdered hydrocolloid gum obtainable from higher plants” (Venture Lending, priority 1997, dated 1999).
“And” between values parts separate entries of the source, which are not always exact repeats. Equal entries are not always repeated.

Legend:
[1] = aspirin-induced gastric ulcer model in rats (ulcer severity grade); assay type: in vivo, rat (Sprague-Dawley male)
Description: Tests were conducted in the aspirin-induced gastric ulcer model. Rats were dosed as indicated below. Five hours after dosing, rats were sacrificed and stomachs were examined for the presence of gastric lesions. A total of 6 treatments were tested. Each treatment was tested in 12 rats. The treatments were prepared immediately prior to use. The aspirin treatments were prepared by suspending 2.00 grams of fine mesh aspirin in 100 ml water (plus 0.1% Tween 80) and then adding the specified amount (i.e. 0, 0.10, 1.00, or 5.00 grams) of Guar gum. The Guar gum 5.0% alone treatment was prepared as above except the aspirin was omitted. All dosing preparations were warmed to about 100° C.; uniformity of suspensions was ensured by constant stirring. Sprague-Dawley male rats, 148 to 190 grams, were individually-housed under standard Vivarium conditions. After arrival, rats were allowed to acclimate in house for a minimum of 5 days before initiation of testing. Rats were fasted (water ad libitum) for 18 hours prior to testing. Treatments 1-6, assigned to rats in random fashion, were administered orally (gavage) at the rate of 10 ml/kilogram (kg). Five hours after treatment, each rat was sacrificed by carbon dioxide inhalation. The abdomen was opened. The stomach was removed, opened along the greater curvature, examined for the presence of lesions, and assigned a severity grade according to the following scale: 0 No lesions 1<5 lesions, at least 1 lesion<2 mm 2<5 lesions, at least 1 lesion>2 mm 3 5 to 10 lesions, all<2 mm 4 5 to 10 lesions, at least 1 lesion>2 mm 5 >10 lesions, all<2 mm 6 >10 lesions, at least 1 lesion>2 mm In order to eliminate bias and reduce subjective variation, all ulcer grading in the study was performed in single-blind fashion by the same well-experienced grader. For each stomach, the severity score was recorded. Data are expressed using the absolute values. […] Statistical significance of differences between means were determined by analysis of variance followed by Neumann-Kuels multiple comparisons test.

[2] = ketoprofen-induced gastric damage in rats; assay type: in vivo, rat (male Wistar); details: ketoprofen 100 mg/kg oral; 5 h after dosing; 15 rats
Description: In this example a dose of ketoprofen (100 mg/kg) was administered to rats to induce gastric damage and guar gum was coadministered to determine its effect. Both the ketoprofen and guar gum were administered as an aqueous mixture.
Seventy-five male Wistar rats each approximately 6 weeks of age and ranging in weight from 206 g to 233 g were housed 5 to a cage in suspended polypropylene cages with wire grid floors. The rats had access to tap water and were fed a standard certified laboratory rodent diet (RM1(E)SQC), ad libitam. Lighting in the animal room was controlled to give 12 hours light (0700-1900 hours) and 12 hours dark each day. The room temperature and relative humidity controls were set at 21° C.±3° C. and 50% ±15% respectively.
After an acclimatization period of 3 days following the day of arrival, the animals were randomized into groups according to bodyweight using random numbers tables so that the group mean bodyweights were approximately equal. Including the day of randomization, there were a further 3 days of acclimatization prior to dosing. […]
Five hours after dosing, the rats were sacrificed by carbon dioxide asphyxiation and the stomachs removed. Each stomach was opened along the greater curvature and examined macroscopically for damage in the glandular portion; any damage was subjectively scored using the following system: […]

Compound	Ulcer Grade, mean ([1]; Table 5, severity scale 0-6, 5 h after oral gavage, 10 ml/kg, 12 rats)	stomachs with ulcer severity scores of 5 or greater ([1]; number of rats of 12)	mean ulcer severity (mean ± s.e.m.) ([1]; severity scale 0-6, 5 h after dosing)	Group mean score for gastric damage [2]
CC(=O)Oc1ccccc1C(=O)O [Aspirin, acetylsalicylic acid]	5.8	11 of the 12	5.8 and 5.75±0.18	–
CC(C(=O)O)c1cccc(C(=O)c2ccccc2)c1 (stereo not shown) [Ketoprofen]	–	–	–	13.1
